According to PubChem BioAssay AID1845228:

Conditions: pampa; 60.0 min; 50.0 µM

SMILES	Papp [×10⁻⁶ cm/s]
O=C(NCC1(N2CCN(c3ccccc3)CC2)CCOCC1)c1cccnc1Sc1ccccc1	207
CCC1C(C)=NN=C(c2ccc(OC)c(OC)c2)c2cc(OC)c(OC)cc21 (configuration not stated)	91
CC(NC(CCc1ccccc1)C(=O)O)C(=O)N1C(=O)N(C)CC1C(=O)O (configuration not stated)	< 1
CN[C@H](CC(C)C)C(=O)N[C@H]1C(=O)N[C@@H](CC(N)=O)C(=O)N[C@H]2C(=O)N[C@H]3C(=O)N[C@H](C(=O)N[C@H](C(=O)O)c4cc(O)cc(O)c4-c4cc3ccc4O)[C@H](O[C@H]3C[C@](C)(N)[C@@H](O)[C@H](C)O3)c3ccc(c(Cl)c3)Oc3cc2cc(c3O[C@@H]2O[C@H](CO)[C@@H](O)[C@H](O)[C@H]2O[C@H]2C[C@](C)(NCc3ccc(-c4ccc(Cl)cc4)cc3)[C@@H](O)[C@H](C)O2)Oc2ccc(cc2Cl)[C@H]1O	12
CS/C=C/C(=O)O[C@@H]1CCC2=CC(=O)C(=C(C)C)C[C@]2(C)[C@H]1C	77
N=c1c2c(-c3ccccc3)c(-c3ccccc3)n(Cc3ccccc3)c2ncn1C1CCC(O)CC1 (configuration not stated)	150
NCCc1ccc(O)c(O)c1	< 1
CCOC(=O)c1ccc(NC(=O)c2sc3nc4c(cc3c2N)N2CCC4CC2)cc1	255
CCN(CC)CC(=O)Oc1ccc(NC(C)=O)cc1	7
CCOc1ccc(-c2nn3ncccc3c2-c2ccc(S(C)(=O)=O)cc2)cc1	111
C=CCNC1=C2C[C@@H](C)C[C@H](OC)[C@H](O)[C@@H](C)/C=C(\C)[C@H](OC(N)=O)[C@@H](OC)/C=C\C=C(/C)C(=O)NC(=CC1=O)C2=O	73

Continued, values first:

Papp [×10⁻⁶ cm/s]	SMILES
115	COc1ccc(-n2nc(C(F)F)cc2-c2ccc(S(C)=O)cc2)cc1 (configuration not stated)
279	COc1ccc(Cn2c(-c3ccccc3)c(-c3ccccc3)c3c(=N)n(CCO)cnc32)cc1
6	NC(=O)c1cccc(-c2cc(O)cc(OC(=O)NC3CCCCC3)c2)c1
49	Cn1c2cc(S(C)=O)sc2c2cnn(Cc3ccccc3F)c(=O)c21 (configuration not stated)
2	CC(=O)Nc1c(I)c(C(=O)N[C@H]2C(O)O[C@H](CO)[C@@H](O)[C@@H]2O)c(I)c(N(C)C(C)=O)c1I (some centres not stated)
81	CC[C@@]1(O)C(=O)OCc2c1cc1n(c2=O)Cc2c-1nc1ccccc1c2/C=N/OC(C)(C)C
2	O=C(NO)c1cnc(NC2(c3ccccc3)CC2)nc1
4	C=CC1=C(C(=O)O)N2C(=O)[C@@H](NC(=O)/C(=N/OCC(=O)O)c3csc(N)n3)[C@H]2SC1
< 1	COc1ccc(-c2noc(CC(=O)O)c2-c2ccc(OC)cc2)cc1
217	O=C(CCCN1CCC(O)(c2ccc(Cl)cc2)CC1)c1ccc(F)cc1
31	CCn1c(C(=O)N(C2CC2)C2CC2)cc2c3c(ncn3C)c(Nc3cc(C)n(C)n3)nc21
